Reference: patent US11980598B2, “N-(2-(substituted-naphth-1-yl)ethyl) substituted amide compound, preparation and uses thereof” (BEIJING GREATWAY PHARMACEUTICAL TECHNOLOGY CO., LTD., priority 2017, dated 2024)

Experiments:
Kunming mice = experiment: Tail suspension test (TST) in mice; format: in vivo, mouse; settings: 10 mg/kg intraperitoneal, 3 days, last 4 of 6 min
Protocol: Animals: Kunming mice, male, body weight 18-22 g, SPF grade; SD rats, male, body weight 150-180 g, SPF grade. The test was carried out after acclimatization, and the animal was fasted for 12 hours before the test.
All drugs for the test were suspended and dispersed in a 1% aqueous solution of hydroxypropyl methylcellulose (HPMC), and shaken well before use. […] The doses for administration were all 10 mg/kg. For the concentration and volume for administration, see J Psychiatry Neurosci 2004; 29(2):126-133. The mice were intraperitoneally administered in a volume of 0.5 mL/20 g; and the rats were administered by i.g. in a volume of 2 mL/100 g.
Mice were randomly divided into groups according to weight balance. Intraperitoneal injection was administered for three consecutive days, once a day, and the tail suspension test were performed 30 minutes after the third day. The tail suspension box was 25×25×35 cm, and a small clip was connected with a rope at the center of the top plate. An adhesive tape was stuck to the tail of the mouse 2 cm away from the tail end, and the adhesive tape was clamped with the clip to make the mouse in an inverted position. The duration of immobility was recorded during the last 4 minutes of total 6 minutes observed.

SD rats [1] = experiment: Anxiety behavior model of repeatedly administrated rat: novelty-suppressed feeding test; format: in vivo; settings: D12
Protocol: (§1) The requirements for test animals, drug formulation and administration were the same as those of the rat chronic mild stress model.
(§2) Instruments: Vogel drinking anxiety device for rat and O-maze device for rat were manufactured by Shanghai XinRuan Company. The rat feeding chamber was a home-made white plastic box (60×45×25 cm).
(§3) The rats were administrated continuously by i.g. once a day. A novelty-suppressed feeding test, a Vogel drinking conflict test, and an O-maze test were performed on a different day, respectively. Each behavior test was performed at 9:00-12:00, and the administration time was 16:00-17:00. The test process was as follows: D12, novelty-suppressed feeding test (animals were fasted for 48 hours before the test); D18, Vogel drinking conflict test (animals were banned from water for 48 hours before the test); D21, O-maze test.
Common paddings with a thickness of 1.5 cm were placed at the floor of the rat feeding chamber, and six equal-sized food pellets were placed in the center. During the test, the rats were individually placed in a fixed position of the feeding chamber, and observed for 5 minutes. The time from rat entry to the start of biting or chewing the food was recorded with a stopwatch.

SD rats [2] = experiment: Acute toxicity test of rat; format: in vivo; settings: for Acute reaction after single administration / Adverse reactions during 14-day observation / Body weight compared with the blank group: rats, 2000 mg/kg i.g.
Protocol: Rats were administered by i.g. at a dose of 2000 mg/kg. The drugs were dispersed with a 1% aqueous solution of hydroxypropyl methylcellulose (HPMC).

SD rats [3] = experiment: Anxiety behavior model of repeatedly administrated rat: O-maze test; format: in vivo; settings: D21, 5 minutes
Protocol: as §1, §2, §3
An O-maze device was placed in the center of a dark room and illuminated with an infrared light during the test. The animal was placed in the center of a closed arm of an O-maze track, timed for 5 minutes, and the activity of the rat in the maze was monitored by an infrared camera. Animals in each group were given a single intragastric administration 60 min before the test. Observation indicators were the number of times the rat entered the open arm and the accumulated dwell time in the open arm.

[4] = In vitro metabolism study, human liver microsomal incubation system; format: in vitro ADME
Protocol: TSQ Quantum liquid chromatography-mass spectrometer (LC/MS/MS) from Finnigan Inc, USA, chromatography column: TSKgel Amide-80 column (2.0 mm I.D.×100 mm, 5 μm); mobile phase: acetonitrile-water-formic acid (50:50:0.1); flow rate: 0.2 mL/min; injection volume: 5 μL; column temperature: room temperature. Ionization source is electrospray ionization (ESI) with 4.8 KV of spray voltage; capillary temperature (TEM): 300° C.; sheath gas: N2, flow rate: 10 psi; auxiliary gas: N2, flow rate: 1 psi; collision gas (CID): Ar at a pressure of 1.5 mTorr. The mass spectrometry scanning method was selective reaction monitoring (SRM) and detected by positive ion method. The internal standard was a […] solution of aconitine in acetonitrile, the minimum limit of quantification was 5 ng/mL, and the correlation coefficient was >0.99.
Approximately 10 mg of each sample to be tested was accurately weighed, dissolved in 0.1 mL of DMSO, and serially diluted with purified water to a 10 μM, 1 μM standard stock solution. An ice bath was operated and the incubation system for detection was formulated according to Table 4. NADPH was added to the incubation system to start the reaction, and then 50 μL was immediately added to 150 μL acetonitrile as a zero-time sample and a 1 μM standard curve sample. Another 1 μM standard stock solution was added to the incubation system, and then 50 μL was immediately added to 150 μL acetonitrile as a 0.1 μM standard curve sample. […] Each sample was shaken, and centrifuged at 18000 g for 10 min. The supernatant was taken for LC/MS/MS injection and determination.

[5] = incubation time 0 min, 1 μM, 1 mg/mL microsome, 37° C.

| Compound | Immobility time (Kunming mice) [s] | Feeding latency (SD rats [1]; 10 mg/kg i.g. once a day) [s] | Feeding latency (SD rats [1]; 20 mg/kg i.g. once a day) [s] | Feeding latency (SD rats [1]; 40 mg/kg i.g. once a day) [s] | Acute reaction after single administration (SD rats [2]) | Adverse reactions during 14-day observation (SD rats [2]) | Body weight compared with the blank group (SD rats [2]) | Dwell time in the open arm (SD rats [3]; 10 mg/kg i.g.) [s] | Number of times entering the open arm (SD rats [3]; 10 mg/kg i.g.) | Dwell time in the open arm (SD rats [3]; 20 mg/kg i.g.) [s] | Number of times entering the open arm (SD rats [3]; 20 mg/kg i.g.) | Dwell time in the open arm (SD rats [3]; 40 mg/kg i.g.) [s] | Number of times entering the open arm (SD rats [3]; 40 mg/kg i.g.) | Concentration measured at incubation time point [4, 5] [nM] | Concentration measured at incubation time point ([4]; incubation time 5 min) [nM] | Concentration measured at incubation time point ([4]; incubation time 15 min) [nM] | other results |
| --- | --- | --- | --- | --- | --- | --- | --- | --- | --- | --- | --- | --- | --- | --- | --- | --- | --- |
| [2H]C([2H])([2H])Oc1cc2c(CCNC(C)=O)cccc2cc1Cl [Example 1, N-(2-(6-chloro-7-deuteromethoxy-naphthalen-1-yl)ethyl)acetamide] | 55.7 ± 19.7 | 141 ± 17 | 124 ± 18 | 120 ± 14 | the activity of the rats became slightly smaller but there were no obvious adverse reactions | no obvious adverse reactions within 14 days after the administration | no significant difference in body weight compared with the blank group | 201 ± 17 | 8.8 ± 0.9 | 245 ± 6 | 10.89 ± 0.7 | 171 ± 27 | 6.3 ± 1.1 | 1001 ± 19 | 793 ± 108 | 194 ± 46 | Feeding latency (SD rats [1]; 5 mg/kg i.g. once a day): 232 ± 23 s; Safety compared with control drug (SD rats [2]; rat model, overall): safer than the control drug Agomelatine; Dwell time in the open arm (SD rats [3]; 5 mg/kg i.g.): 131 ± 30 s; Number of times entering the open arm (SD rats [3]; 5 mg/kg i.g.): 4.8 ± 0.9; Metabolic stability in human liver microsome (comparison) ([4]; compared among examples and controls): highest metabolic stability; Concentration measured at incubation time point ([4]; incubation time 30 min): 110 ± 88 nM |
| COc1ccc2cccc(CCNC(C)=O)c2c1 [Agomelatine, reference compound] | 75.1 ± 21.4 | 208 ± 26 | 163 ± 25 | 124 ± 25 | 8 rats were slow to move or became lethargic, and all returned to normal within 2 hours | no obvious adverse reactions within 14 days after the administration | no significant difference in body weight compared with the blank group | 126 ± 15 | 2.25 ± 0.4 | 196 ± 30 | 3.1 ± 0.8 | 170 ± 29 | 6.2 ± 1.0 | 999 ± 59 | 539 ± 19 | 9 ± 5 |  |
